The values that follow come from patent US8637463B2, “Peptide inhibiting angiotensin converting enzyme” (Meiji Dairies Corporation, priority 2003, dated 2014).

Broadly, the pIC50 is the negative decadic logarithm of the IC50, by convention in mol/L.

pIC50: −log10 of the molar value. Where a SMILES comes first, the peptide text is derived from it. Where no end group is shown, it is not given here.

Chain of ACE (P12821 30-1306, species assumed): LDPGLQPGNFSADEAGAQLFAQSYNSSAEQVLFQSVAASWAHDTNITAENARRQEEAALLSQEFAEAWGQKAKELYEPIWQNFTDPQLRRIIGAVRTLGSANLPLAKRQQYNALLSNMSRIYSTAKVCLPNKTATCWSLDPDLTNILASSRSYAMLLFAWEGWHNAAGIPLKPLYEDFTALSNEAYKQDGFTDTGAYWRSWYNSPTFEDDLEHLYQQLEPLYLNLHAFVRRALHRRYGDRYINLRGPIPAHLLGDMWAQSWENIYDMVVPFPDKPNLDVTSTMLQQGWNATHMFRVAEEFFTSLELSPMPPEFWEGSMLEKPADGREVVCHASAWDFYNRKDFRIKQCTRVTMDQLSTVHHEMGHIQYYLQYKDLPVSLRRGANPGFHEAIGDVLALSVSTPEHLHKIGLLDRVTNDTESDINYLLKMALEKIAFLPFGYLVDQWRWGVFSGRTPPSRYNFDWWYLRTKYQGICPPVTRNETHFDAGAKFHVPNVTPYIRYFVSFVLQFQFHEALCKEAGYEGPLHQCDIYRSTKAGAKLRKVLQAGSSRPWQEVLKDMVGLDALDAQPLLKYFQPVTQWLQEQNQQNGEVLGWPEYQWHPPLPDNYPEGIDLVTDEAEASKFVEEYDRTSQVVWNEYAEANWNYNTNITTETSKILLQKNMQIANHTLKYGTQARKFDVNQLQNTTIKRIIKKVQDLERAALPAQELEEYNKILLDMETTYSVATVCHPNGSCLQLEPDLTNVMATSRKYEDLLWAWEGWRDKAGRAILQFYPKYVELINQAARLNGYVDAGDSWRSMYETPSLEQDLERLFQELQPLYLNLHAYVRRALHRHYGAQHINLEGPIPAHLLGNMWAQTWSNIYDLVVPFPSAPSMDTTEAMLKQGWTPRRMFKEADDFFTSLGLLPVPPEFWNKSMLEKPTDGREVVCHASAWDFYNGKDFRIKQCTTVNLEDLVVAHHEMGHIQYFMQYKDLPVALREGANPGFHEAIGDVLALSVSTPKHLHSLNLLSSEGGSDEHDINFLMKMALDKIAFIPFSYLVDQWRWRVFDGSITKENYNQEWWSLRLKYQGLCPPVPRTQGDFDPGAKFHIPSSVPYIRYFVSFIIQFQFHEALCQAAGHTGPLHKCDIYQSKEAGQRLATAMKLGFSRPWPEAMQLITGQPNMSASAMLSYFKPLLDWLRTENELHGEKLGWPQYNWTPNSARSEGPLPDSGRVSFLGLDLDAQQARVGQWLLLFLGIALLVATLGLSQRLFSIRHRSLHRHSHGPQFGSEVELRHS

In the first assay the target is Angiotensin Converting Enzyme (Homo sapiens, UniProt P12821). Description: ACE inhibitory activity with Hippuryl-His-Leu substrate, absorbance at 228 nm. The conditions noted are these: peptides having Met-Ala-Pro as a partial structure, same method as Example 2; Table 2. Format: biochemical. As for the experimental part: Each of the peptides of SEQ ID NOs:1 to 7 was synthesized using an automatic peptide synthesizer. It was confirmed by reverse phase HPLC that the purity of each of the thus obtained peptides is 95%. Each of these synthetic peptides was dissolved in 0.1 M borate buffer (pH 8.3). Subsequently, 0.1 ml of an enzyme solution (Angiotensin Converting Enzyme: 2 units/ml) and 0.04 ml of each of the sample solutions were mixed therewith, followed by heating to 37° C. A 0.1 ml portion of a substrate solution (Hippuryl-His-Leu; N-Benzoyl-Gly-His-Leu) was added thereto, followed by thorough stirring. After allowing the mixture to react at 37° C. for 60 minutes, the reaction was stopped by adding 0.13 ml of 1 N hydrochloric acid. Then, 0.85 ml of ethyl acetate was added thereto, followed by shaking for 1 minute, and then the mixture was centrifuged at 3,000 rpm for 10 minutes. A 0.7 ml portion of the supernatant was recovered, and the solvent was removed using a centrifugal evaporator (about 30 minutes). The residual matters were dissolved by adding 0.5 ml of distilled water, and the absorbance at a wavelength of 228 nm was measured.
Chain of Angiotensin Converting Enzyme (P12821 30-1306, species assumed): as above
The activity of inhibiting ACE (%) was calculated by the following mathematical expression 1. Activity of inhibiting ACE(%)={(A−B)−(C−D)}/(A−B)×100 Mathematical expression 1
In this connection, A in the expression is absorbance of the control when the enzyme is used, B is the absorbance of the control when the enzyme is not used, C is absorbance of the sample when the enzyme is used, and D is absorbance of the sample when the enzyme is not used. In addition, 0.1 M borate buffer was used in the control instead of the sample solution.
Based on the thus obtained ACE inhibitory activities, IC50 of each peptide was calculated.
ACE inhibitory activities (%) of the 4 peptides, Leu-Met-Ala-Pro (SEQ ID NO:4), Arg-Met-Ala-Pro (SEQ ID NO:5), Met-Ala-Pro-Pro (SEQ ID NO:6) and Arg-Met-Ala-Pro-Pro (SEQ ID NO:7), which have Met-Ala-Pro as a partial structure, were obtained by the same method of Example 2, and their IC50's were calculated.
Regarding `CSCC[C@H](NC(=O)[C@@H](N)CCCNC(=N)N)C(=O)N[C@@H](C)C(=O)N1CCC[C@H]1C(=O)O` [Arg-Met-Ala-Pro] (H-RMAP-OH; N-terminus and C-terminus assumed), the pIC50 is 4.62.
Still for that read-out and setting: for `CSCC[C@H](NC(=O)[C@@H](N)CC(C)C)C(=O)N[C@@H](C)C(=O)N1CCC[C@H]1C(=O)O` [Leu-Met-Ala-Pro] (H-LMAP-OH; N-terminus and C-terminus assumed) the value was 4.55; for `CSCC[C@H](N)C(=O)N[C@@H](C)C(=O)N1CCC[C@H]1C(=O)N1CCC[C@H]1C(=O)O` [Met-Ala-Pro-Pro] (H-MAPP-OH; N-terminus and C-terminus assumed), 4.55; for RMAPP [Arg-Met-Ala-Pro-Pro], 3.59.

The assay is the same for the next values; noted with them: synthetic peptide, 0.1 M borate buffer pH 8.3, 37° C., 60 minutes; Table 1.
Consider `CC[C@H](C)[C@H](N)C(=O)N[C@@H](CCC(N)=O)C(=O)N[C@@H](C)C(=O)O` [Ile-Gln-Ala] (H-Ile-Gln-Ala-OH; N-terminus and C-terminus assumed), for which the pIC50 was 4.19.
For `CC[C@H](C)[C@H](N)C(=O)N[C@@H](Cc1c[nH]cn1)C(=O)N[C@@H](C)C(=O)O` [Ile-His-Ala] (H-Ile-His-Ala-OH; N-terminus and C-terminus assumed), the pIC50 was 3.40.

The next assay has as its target ACE (Homo sapiens, UniProt P12821).
Test: not given
The conditions noted are these: known ACE-inhibiting peptides from casein and corn protein α-zein; cited from earlier work.
As for “Ile-Pro-Pro [IPP, casein-derived peptide]”, the pIC50 was 5.30.
Turning to “Leu-Gln-Pro [LQP, corn protein α-zein-derived peptide]”, the pIC50 is 5.70.
On to “Val-Ala-Pro [VAP, casein-derived peptide]”, for which the pIC50 is 5.70.
As to Val-Pro-Pro [VPP], the pIC50 is 5.05.
